The record followed here is patent publication US10479786B2, “Protein kinase inhibitors” (Princeton Drug Discovery Inc, priority 2016, dated 2019).

A value given as a limit tells only on which side of the number the result lay.

Data set [1] concerns the target T1, ABL (Homo sapiens, UniProt P00519).
T1 construct: purchased Carna Biosciences, Inc
Kind of data set: Off-chip Mobility Shift Assay, kinase inhibition. The settings on record: recombinant ABL; for inhibition at 0.001 µM: at 1 nM; for inhibition at 0.01 µM: at 10 nM. The class given is biochemical.

Data set [2] has as its target T2, ABL(E255K) (Homo sapiens, UniProt P00519, E255K).
T2 construct: purchased Carna Biosciences, Inc
Kind of data set: Off-chip Mobility Shift Assay, kinase inhibition. To be noted: recombinant ABL(E255K); for inhibition at 0.001 µM: at 1 nM; for inhibition at 0.01 µM: at 10 nM. The class given is biochemical.

In data set [3] the target is T3, ACK (Homo sapiens, UniProt Q07912).
T3 construct: purchased Carna Biosciences, Inc
T3 sequence (Q07912 whole entry): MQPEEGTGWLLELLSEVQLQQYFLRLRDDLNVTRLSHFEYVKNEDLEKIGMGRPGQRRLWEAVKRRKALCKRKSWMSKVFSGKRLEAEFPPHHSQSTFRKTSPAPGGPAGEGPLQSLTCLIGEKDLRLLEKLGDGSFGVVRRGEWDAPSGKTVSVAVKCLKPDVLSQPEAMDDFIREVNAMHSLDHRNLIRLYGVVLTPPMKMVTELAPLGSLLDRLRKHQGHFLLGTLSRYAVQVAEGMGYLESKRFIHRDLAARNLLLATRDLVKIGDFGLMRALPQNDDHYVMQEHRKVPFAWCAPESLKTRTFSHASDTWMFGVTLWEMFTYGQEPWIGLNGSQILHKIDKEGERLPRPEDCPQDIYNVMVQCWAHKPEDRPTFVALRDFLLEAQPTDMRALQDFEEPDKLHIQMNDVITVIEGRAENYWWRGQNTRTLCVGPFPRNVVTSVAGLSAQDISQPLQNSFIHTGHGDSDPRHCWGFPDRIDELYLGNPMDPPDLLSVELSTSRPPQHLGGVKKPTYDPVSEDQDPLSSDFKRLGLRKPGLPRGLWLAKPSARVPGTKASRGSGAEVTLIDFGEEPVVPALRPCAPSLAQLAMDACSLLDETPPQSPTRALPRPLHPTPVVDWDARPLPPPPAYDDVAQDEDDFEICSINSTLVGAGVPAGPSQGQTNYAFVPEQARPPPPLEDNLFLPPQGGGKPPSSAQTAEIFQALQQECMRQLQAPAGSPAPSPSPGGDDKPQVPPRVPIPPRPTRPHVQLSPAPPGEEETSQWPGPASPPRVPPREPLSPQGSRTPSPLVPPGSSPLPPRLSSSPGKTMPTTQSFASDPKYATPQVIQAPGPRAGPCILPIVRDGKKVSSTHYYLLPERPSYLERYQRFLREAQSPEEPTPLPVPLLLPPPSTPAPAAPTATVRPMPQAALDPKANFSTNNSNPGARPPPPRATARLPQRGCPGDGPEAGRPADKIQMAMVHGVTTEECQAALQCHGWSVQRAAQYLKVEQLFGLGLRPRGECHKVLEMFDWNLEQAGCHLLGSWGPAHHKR
The data set can be described thus: Off-chip Mobility Shift Assay, kinase inhibition. To be noted: at 10 nM; recombinant ACK. The class given is biochemical.

The target of data set [4] is T4, EPHA1 (Homo sapiens, UniProt P21709).
T4 construct: purchased Carna Biosciences, Inc
T4 sequence (P21709 26-976): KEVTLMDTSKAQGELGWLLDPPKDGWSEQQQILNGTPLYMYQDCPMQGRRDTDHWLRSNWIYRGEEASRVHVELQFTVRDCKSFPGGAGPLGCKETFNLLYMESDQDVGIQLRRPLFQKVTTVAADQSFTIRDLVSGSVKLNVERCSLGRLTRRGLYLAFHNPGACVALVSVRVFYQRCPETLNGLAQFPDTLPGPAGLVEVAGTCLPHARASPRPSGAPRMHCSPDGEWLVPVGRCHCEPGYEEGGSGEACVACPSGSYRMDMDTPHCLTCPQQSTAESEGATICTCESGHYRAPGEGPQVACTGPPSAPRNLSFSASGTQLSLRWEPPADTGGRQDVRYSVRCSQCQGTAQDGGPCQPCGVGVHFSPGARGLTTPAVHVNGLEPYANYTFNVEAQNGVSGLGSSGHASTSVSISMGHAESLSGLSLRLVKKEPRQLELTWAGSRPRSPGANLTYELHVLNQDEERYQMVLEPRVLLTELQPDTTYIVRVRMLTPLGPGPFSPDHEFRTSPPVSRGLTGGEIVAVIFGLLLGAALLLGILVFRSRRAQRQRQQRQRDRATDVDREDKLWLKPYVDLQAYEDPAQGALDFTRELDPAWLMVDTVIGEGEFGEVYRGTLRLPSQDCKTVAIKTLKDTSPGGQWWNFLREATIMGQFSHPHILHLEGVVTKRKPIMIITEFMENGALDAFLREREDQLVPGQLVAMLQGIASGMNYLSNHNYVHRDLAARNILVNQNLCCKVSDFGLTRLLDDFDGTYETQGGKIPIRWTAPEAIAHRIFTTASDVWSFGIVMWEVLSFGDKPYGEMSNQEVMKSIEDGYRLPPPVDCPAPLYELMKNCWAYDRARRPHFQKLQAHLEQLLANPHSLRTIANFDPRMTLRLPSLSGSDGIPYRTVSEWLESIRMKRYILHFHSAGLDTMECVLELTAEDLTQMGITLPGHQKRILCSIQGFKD
Kind of data set: Off-chip Mobility Shift Assay, kinase inhibition. Format: biochemical. To be noted: at 10 nM; recombinant EPHA1.

The target in data set [5] is T5, FRK (Homo sapiens, UniProt P42685).
T5 construct: purchased Carna Biosciences, Inc
T5 sequence (P42685 whole entry): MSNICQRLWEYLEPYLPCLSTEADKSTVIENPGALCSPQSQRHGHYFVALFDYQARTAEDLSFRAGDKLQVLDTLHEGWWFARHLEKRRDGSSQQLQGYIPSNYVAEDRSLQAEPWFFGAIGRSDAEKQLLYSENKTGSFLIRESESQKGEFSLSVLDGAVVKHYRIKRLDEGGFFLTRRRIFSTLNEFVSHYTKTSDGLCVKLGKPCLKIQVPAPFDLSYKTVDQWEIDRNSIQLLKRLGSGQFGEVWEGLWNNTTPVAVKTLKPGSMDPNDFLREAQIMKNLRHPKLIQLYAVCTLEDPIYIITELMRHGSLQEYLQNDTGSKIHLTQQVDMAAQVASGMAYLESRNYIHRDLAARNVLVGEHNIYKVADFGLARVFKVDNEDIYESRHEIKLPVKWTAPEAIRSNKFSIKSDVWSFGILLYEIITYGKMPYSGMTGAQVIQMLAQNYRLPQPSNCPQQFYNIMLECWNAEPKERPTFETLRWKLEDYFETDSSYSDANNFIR
The data set can be described thus: Off-chip Mobility Shift Assay, kinase inhibition. The class given is biochemical. The settings on record: at 10 nM; recombinant FRK.

Data set [6] has as its target T6, FYN(isoform a) (Homo sapiens, UniProt P06241).
T6 construct: purchased Carna Biosciences, Inc
The data set can be described thus: Off-chip Mobility Shift Assay, kinase inhibition. The class given is biochemical. The settings on record: at 10 nM; recombinant FYN(isoform a).

Data set [7] has as its target T7, HCK (Homo sapiens, UniProt P08631).
T7 construct: purchased Carna Biosciences, Inc
The data set can be described thus: Off-chip Mobility Shift Assay, kinase inhibition. Format: biochemical. The settings on record: recombinant HCK; for inhibition at 0.001 µM: at 1 nM; for inhibition at 0.01 µM: at 10 nM, read-out: inhibition.

For data set [8], the target named is T8, PIK3CA/PIK3R1 (Homo sapiens, UniProt P42336).
T8 construct: purchased Carna Biosciences, Inc
T8 sequence (P42336 whole entry): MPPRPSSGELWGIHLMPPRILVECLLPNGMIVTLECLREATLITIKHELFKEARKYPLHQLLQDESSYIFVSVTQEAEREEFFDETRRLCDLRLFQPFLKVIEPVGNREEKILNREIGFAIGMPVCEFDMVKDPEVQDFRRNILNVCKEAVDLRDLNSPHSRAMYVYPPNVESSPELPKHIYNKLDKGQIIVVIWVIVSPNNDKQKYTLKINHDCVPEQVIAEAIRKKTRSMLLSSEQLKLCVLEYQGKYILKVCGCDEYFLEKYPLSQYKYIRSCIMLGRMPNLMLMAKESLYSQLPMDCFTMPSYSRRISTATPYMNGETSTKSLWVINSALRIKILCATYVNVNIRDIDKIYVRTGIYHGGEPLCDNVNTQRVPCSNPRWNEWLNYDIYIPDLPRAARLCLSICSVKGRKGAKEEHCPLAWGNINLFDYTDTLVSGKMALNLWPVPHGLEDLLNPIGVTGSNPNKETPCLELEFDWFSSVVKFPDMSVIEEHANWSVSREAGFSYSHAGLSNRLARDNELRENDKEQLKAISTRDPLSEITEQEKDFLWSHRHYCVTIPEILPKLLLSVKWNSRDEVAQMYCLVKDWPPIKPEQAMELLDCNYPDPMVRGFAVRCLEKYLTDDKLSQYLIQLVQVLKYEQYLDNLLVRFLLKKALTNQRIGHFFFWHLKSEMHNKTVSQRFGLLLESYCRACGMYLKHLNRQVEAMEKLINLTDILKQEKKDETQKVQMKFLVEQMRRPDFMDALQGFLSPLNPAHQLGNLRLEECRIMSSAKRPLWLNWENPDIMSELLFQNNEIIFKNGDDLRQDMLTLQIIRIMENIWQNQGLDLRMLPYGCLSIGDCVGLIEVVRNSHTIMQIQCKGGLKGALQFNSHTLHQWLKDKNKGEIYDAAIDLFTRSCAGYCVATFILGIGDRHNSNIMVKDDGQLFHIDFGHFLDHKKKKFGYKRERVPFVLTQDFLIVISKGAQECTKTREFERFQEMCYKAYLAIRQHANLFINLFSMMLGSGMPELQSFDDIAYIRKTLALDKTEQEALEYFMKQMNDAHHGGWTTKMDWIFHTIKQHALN
T8 sequence (P27986 whole entry partner): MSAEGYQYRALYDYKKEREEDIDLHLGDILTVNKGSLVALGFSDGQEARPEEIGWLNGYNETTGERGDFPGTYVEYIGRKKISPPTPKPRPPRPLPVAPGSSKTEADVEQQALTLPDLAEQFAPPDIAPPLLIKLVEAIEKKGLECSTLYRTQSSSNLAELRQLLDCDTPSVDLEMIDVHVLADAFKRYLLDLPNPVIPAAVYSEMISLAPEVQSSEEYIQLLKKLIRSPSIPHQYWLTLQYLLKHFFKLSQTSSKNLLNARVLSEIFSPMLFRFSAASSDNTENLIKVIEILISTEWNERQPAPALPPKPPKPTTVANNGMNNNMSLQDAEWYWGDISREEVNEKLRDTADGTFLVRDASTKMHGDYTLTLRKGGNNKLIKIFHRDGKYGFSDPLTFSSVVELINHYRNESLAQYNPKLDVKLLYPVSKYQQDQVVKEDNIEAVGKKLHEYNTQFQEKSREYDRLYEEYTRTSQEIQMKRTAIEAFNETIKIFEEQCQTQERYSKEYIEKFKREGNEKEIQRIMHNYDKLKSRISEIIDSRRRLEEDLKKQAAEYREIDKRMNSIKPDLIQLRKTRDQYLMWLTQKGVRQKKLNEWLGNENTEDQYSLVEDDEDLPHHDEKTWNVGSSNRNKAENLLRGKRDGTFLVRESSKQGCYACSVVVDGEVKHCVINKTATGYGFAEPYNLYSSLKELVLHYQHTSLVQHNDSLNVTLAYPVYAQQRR
The data set can be described thus: Off-chip Mobility Shift Assay, kinase inhibition. Format: biochemical. The settings on record: at 10 nM; recombinant PIK3CA/PIK3R1.

Data set [9] concerns the target T9, TEC (Homo sapiens, UniProt P42680).
T9 construct: purchased Carna Biosciences, Inc
T9 sequence (P42680 1-631): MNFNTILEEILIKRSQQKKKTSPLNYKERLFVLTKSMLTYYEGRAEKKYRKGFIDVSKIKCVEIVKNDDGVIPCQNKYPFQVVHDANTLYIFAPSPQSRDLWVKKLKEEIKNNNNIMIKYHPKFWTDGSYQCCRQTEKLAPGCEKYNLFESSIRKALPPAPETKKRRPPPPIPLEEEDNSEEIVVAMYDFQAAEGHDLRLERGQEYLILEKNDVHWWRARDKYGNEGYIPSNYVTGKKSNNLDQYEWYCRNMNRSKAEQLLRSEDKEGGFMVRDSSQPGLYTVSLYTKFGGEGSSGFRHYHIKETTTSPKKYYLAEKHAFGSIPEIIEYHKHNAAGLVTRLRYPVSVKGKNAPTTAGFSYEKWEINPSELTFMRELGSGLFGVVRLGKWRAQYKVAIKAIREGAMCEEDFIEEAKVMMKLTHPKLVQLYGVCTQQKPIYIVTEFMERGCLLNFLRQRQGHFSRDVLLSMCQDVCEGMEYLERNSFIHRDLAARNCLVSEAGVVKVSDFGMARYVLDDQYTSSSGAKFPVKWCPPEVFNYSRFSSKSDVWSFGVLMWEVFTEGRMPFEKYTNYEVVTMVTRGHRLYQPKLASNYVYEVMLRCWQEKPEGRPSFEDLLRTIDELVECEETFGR
Kind of data set: Off-chip Mobility Shift Assay, kinase inhibition. The class given is biochemical. The settings on record: at 1 nM; recombinant TEC.

Data set [10] has as its system Mino. The data set can be described thus: Cell inhibition assay (PrestoBlue, 48 h). The class given is cell-based. To be noted: Homo sapiens, Mino cells, read-out: IC50, inhibition of growth.
The nature of data set [11]: Metabolic stability in human liver microsomes. Format: in vitro ADME. To be noted: for metabolic stability compared to dasatinib: human liver microsomes. The procedure: FIG. 1. Metabolic stability of compounds in human liver microsomal incubations. […] Concentrations at specified times were determined by LC-MS/MS.
The incubation reactions at various time points were quenched by adding 2× volumes of acetonitrile containing 100 nM reserpine. The quenched incubation samples were centrifuged at 4000 RPM for 10 min, and the supernatants injected for LC/MS/MS analysis. LC/MS/MS analysis was carried out on a AB Sciex 4000 Q Trap LC/MS/MS system coupled with Shimadzu Prominence UFLCXR 20 series (including a CBM-20A controller, two LC-20ADXR solvent delivery units, SIL-20AC HT autosampler, CTO-20A column oven, and a SPD-20A UV detector).

T2 sequence (P00519 whole entry E255K): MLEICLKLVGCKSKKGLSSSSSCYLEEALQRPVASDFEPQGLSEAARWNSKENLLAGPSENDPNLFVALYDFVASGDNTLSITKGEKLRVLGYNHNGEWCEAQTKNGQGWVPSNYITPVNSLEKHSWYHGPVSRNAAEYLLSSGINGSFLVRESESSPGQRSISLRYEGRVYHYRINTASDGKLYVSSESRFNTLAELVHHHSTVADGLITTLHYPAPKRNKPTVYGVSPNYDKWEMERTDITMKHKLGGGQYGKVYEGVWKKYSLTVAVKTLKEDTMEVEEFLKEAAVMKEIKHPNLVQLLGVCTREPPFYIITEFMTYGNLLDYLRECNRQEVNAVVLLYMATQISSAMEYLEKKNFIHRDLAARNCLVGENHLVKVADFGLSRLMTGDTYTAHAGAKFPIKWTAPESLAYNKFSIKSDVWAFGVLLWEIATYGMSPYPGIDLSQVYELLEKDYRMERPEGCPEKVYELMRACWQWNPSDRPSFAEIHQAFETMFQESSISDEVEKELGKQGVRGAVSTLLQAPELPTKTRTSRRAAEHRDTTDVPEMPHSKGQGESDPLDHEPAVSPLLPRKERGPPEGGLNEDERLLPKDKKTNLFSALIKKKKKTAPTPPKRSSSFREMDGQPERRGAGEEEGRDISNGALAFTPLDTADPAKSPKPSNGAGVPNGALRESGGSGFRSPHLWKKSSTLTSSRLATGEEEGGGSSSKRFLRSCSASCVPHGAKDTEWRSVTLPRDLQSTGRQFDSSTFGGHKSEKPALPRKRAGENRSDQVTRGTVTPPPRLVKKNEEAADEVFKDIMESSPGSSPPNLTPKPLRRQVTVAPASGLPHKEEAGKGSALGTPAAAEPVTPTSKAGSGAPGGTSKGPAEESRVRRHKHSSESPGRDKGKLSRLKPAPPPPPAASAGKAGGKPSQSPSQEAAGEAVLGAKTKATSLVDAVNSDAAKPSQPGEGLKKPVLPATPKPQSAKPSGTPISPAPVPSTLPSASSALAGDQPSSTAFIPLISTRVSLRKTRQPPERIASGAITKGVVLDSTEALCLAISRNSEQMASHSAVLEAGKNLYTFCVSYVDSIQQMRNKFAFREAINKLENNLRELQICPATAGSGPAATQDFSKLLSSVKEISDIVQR
T6 sequence (P06241 whole entry, canonical isoform): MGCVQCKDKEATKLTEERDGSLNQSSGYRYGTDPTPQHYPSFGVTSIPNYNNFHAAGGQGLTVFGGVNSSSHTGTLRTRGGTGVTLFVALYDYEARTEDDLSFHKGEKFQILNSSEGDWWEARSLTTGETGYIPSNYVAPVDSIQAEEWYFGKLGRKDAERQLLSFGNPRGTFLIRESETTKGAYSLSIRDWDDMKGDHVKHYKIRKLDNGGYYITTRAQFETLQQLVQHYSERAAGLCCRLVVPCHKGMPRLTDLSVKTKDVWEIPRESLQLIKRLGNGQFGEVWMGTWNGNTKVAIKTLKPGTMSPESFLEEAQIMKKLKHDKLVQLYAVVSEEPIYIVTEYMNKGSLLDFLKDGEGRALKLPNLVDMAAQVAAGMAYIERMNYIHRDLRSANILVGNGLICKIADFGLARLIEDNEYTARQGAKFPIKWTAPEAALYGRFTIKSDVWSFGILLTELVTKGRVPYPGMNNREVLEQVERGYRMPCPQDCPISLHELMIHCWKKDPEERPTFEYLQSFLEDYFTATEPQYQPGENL
T1 sequence (P00519 whole entry): as the sequence (P00519 whole entry E255K) above, with K255E counted along it

On to `[2H]c1cc(C)c(NC(=O)c2cnc(Nc3cc(N4CC[C@H](N)C4)nc(C)n3)s2)c(Cl)c1` [Compound VI, N-(2-chloro-4-dutero-6-methylphenyl)-2-[[2-methyl-6-((S)-3-aminopyrrolidin-1-yl)pyrimidin-4-yl]amino]thiazole-5-carboxamide], for which the inhibition at 0.001 µM in [1], in [2], in data set [7] and in data set [9] was over 50% throughout. The inhibition at 0.01 µM in [1], in data set [2], in data set [3], in data set [4], in [5] and in data set [6] was over 50% throughout. Besides, the inhibition at 0.01 µM in data set [7] and in data set [8] was over 50% in each case. Besides, the IC50 in data set [10] was under 50 nM. Moreover, the “metabolic stability compared to dasatinib” value in data set [11] was “significantly greater stability”.

Take `[2H]c1cc(C)c(NC(=O)c2cnc(Nc3cc(N4CC[C@@H](N)C4)nc(C)n3)s2)c(Cl)c1` [Compound VII, N-(2-chloro-4-deutero-6-methylphenyl)-2-[[2-methyl-6-((R)-3-aminopyrrolidin-1-yl)pyrimidin-4-yl]amino]thiazole-5-carboxamide]: the inhibition at 0.001 µM in data set [1], in data set [2], in data set [7] and in data set [9] was over 50% in each case. Besides, the inhibition at 0.01 µM in [1], in data set [2], in [3], in data set [4], in [5] and in data set [6] was over 50% in each case. Also, the inhibition at 0.01 µM in data set [7] and in data set [8] was over 50% throughout. Besides, the IC50 in data set [10] is under 50 nM. Besides, the “metabolic stability compared to dasatinib” value in [11] is listed as “significantly greater stability”.

Take `Cc1nc(Nc2ncc(C(=O)Nc3c(C)cccc3Cl)s2)cc(N2CCCCC2)n1` [Compound VIII, N-(2-chloro-6-methylphenyl)-2-[[2-methyl-6-(piperidin-1-yl)pyrimidin-4-yl]amino]thiazole-5-carboxamide]: the inhibition at 0.001 µM in [1], in data set [2], in [7] and in [9] was over 50% throughout. Further, the inhibition at 0.01 µM in data set [1], in [2], in data set [3], in [4], in data set [5] and in [6] was over 50% throughout. Also, the inhibition at 0.01 µM in data set [7] and in data set [8] was over 50% in each case. In addition, the IC50 in data set [10] is under 50 nM. Further, the “metabolic stability compared to dasatinib” value in data set [11] is “significantly greater stability”.

`Cc1nc(Nc2ncc(C(=O)Nc3c(C)cccc3Cl)s2)cc(N2CC[C@H](O)C2)n1` [Compound X, N-(2-chloro-6-methylphenyl)-2-[[2-methyl-6-((S)-3-hydroxypyrrolidin-1-yl)pyrimidin-4-yl]amino]thiazole-5-carboxamide]: the inhibition at 0.001 µM in [1], in data set [2], in data set [7] and in data set [9] was over 50% in each case. Besides, the inhibition at 0.01 µM in data set [1], in [2], in data set [3], in data set [4], in data set [5] and in data set [6] was over 50% each time. For the same compound, the inhibition at 0.01 µM in [7] and in data set [8] was over 50% in each case. Moreover, the IC50 in data set [10] was under 50 nM. In data set [11] (1 μM, human liver microsomes 0.5 mg/mL, NADPH and UDPGA, 37° C.), the “In vitro t1/2” value is 1.45 h. The “metabolic stability compared to dasatinib” value in data set [11] is given as “significantly greater stability”.
